{"source": "patent US20220110902A1", "about": "“Methods of treating amyloid-beta peptide diseases” (Ecole Polytechnique Federale de Lausanne, priority 2016, published 2022)", "key": {"[1]": {"tested_on": "SH-SY5Y neuroblastoma cell line expressing the APP Swedish K670N/M671L double mutation (APPSwe)", "experiment": "Immunostaining of intracellular Aβ deposits in APPSwe SH-SY5Y cells", "assay_type": "cell-based, human", "protocol": "The SH-SY5Y neuroblastoma cell line expressing the APP Swedish K670N/M671L double mutation (APPSwe) was a kind gift of Prof. Cedazo-Minguez (Karolinska Institute, Sweden). Cells were grown in DMEM/F-12, supplemented with 10% fetal bovine serum (FBS, Gibco), GlutaMAX (100×, Gibco) and penicillin/streptomycin (1×, Gibco). Cells were selected in 4 μg/mL Geneticin® Selective Antibiotic (G418 Sulfate, Sigma) and grown for three generations before experiments with cells plated and passaged at 4×10^3 cells/ml and 60% confluence, respectively. Cells were cultured at 37° C. under a 5% CO2 atmosphere and tested for mycoplasma using Mycoprobe (#CUL001B, R&D systems) following the manufacturer's instructions. Cells were treated with 10 μg/mL dox, NR 1 or 3 mM, ISRIB 0.5 μM (Sigma), as indicated for 24 hours before cell harvesting or fixation. For the immunostaining, cells were fixed with 1× Formal-Fixx (Thermo Scientific) for 15 min. After 15 min permeabilization with 0.1% Triton X-100, cells were blocked in PBS supplemented with 5% fetal bovine serum for 1 hour and immunostained overnight, at 4° C., with the anti-β-Amyloid 1-42 (1:100, Millipore AB5078P). The secondary antibody was coupled to the Alexa-488 fluorochrome (Thermo Scientific), and nuclei were stained with DAPI (Invitrogen, D1306). After washing in PBS, cell slides were mounted with Dako mounting medium (Dako, S3023) and examined with a Zeiss LSM 700 confocal microscope (Carl Zeiss MicroImaging) equipped with a Plan-Apochromat 40×/1.3 NA oil immersion objective lens using a 488 nm laser. Laser power was set at the lowest intensity allowing clear visualization of the signal. Imaging settings were maintained with the same parameters for comparison between different experimental conditions.\nThe SH-SY5Y neuroblastoma cell line expresses the APP Swedish K670N/M671L double mutation (APPSwe) (Zheng et al., 2011) and accumulates intracellular Aβ amyloid aggregates. Cells were grown in DMEM/F-12, supplemented with 10% fetal bovine serum (FBS, Gibco), GlutaMAX (100×, Gibco) and penicillin/streptomycin (1×, Gibco). Cells were selected in 4 μg/mL Geneticin® Selective Antibiotic (G418 Sulfate, Sigma) and grown for three generations before experiments with cells plated and passaged at 4×10{right arrow over ( )}3 cells/ml and 60% confluence, respectively. Cells were cultured at 37° C. under a 5% CO2 atmosphere and tested for mycoplasma using Mycoprobe (#CUL001B, R&D systems), following the manufacturer's instructions. Myriocin was dissolved in DMSO.\nCells were treated with 10 uM Myriocin and Fumonisin B1 for 24 hours before harvesting or fixation (FIG. 3A). For immunostaining, cells were fixed with 1× Formal-Fixx (Thermo Scientific) for 15 min. […]"}, "SH-SY5Y(APPSwe) cells": {"tested_on": "SH-SY5Y(APPSwe) cells", "experiment": "Western-blot and transcript analysis in SH-SY5Y(APPSwe) cells", "assay_type": "cell-based, human", "conditions": "ISRIB 0.5 μM with dox 10 μg/mL, 24 h", "protocol": "Human: Total RNA was extracted using guanidine-isothiocyanate lysis (PureLink, Ambion, Waltham, Mass.) from cortex samples, and RNA integrity and concentration was verified using Bioanalysis (Agilent, Santa Clara, Calif.). Samples were randomized based on diagnostic group and assayed in triplicate on a real-time PCR cycler (ABI 7500, Applied Biosystems, Foster City) in 96-well optical plates. qPCR was performed using Taqman hydrolysis probe primer sets (Applied Biosystems) specific for the following human transcripts: HSPA9, HSPD1, YMEIL1, DNM1L, BECN1, SQSTM1, PARK2, COX5A, CYC1. A primer set specific for human GAPDH was used as a control housekeeping transcript. For the APPSwe-expressing SH-SY5Y cell line, total RNA was extracted […] using TriPure RNA isolation reagent, and expression of selected transcripts was analyzed using the LightCycler480 system (Roche) and LightCycler® 480 SYBR Green I Master reagent (Roche). The GAPDH gene was used as housekeeping reference. The ddCT method was employed to determine relative levels of each amplicon. […] The SH-SY5Y neuroblastoma cell line expressing the APP Swedish K670N/M671L double mutation (APPSwe) was a kind gift of Prof. Cedazo-Minguez (Karolinska Institute, Sweden). Cells were grown in DMEM/F-12, supplemented with 10% fetal bovine serum (FBS, Gibco), GlutaMAX (100×, Gibco) and penicillin/streptomycin (1×, Gibco). Cells were selected in 4 μg/mL Geneticin® Selective Antibiotic (G418 Sulfate, Sigma) and grown for three generations before experiments with cells plated and passaged at 4×10^3 cells/ml and 60% confluence, respectively. Cells were cultured at 37° C. under a 5% CO2 atmosphere and tested for mycoplasma using Mycoprobe (#CUL001B, R&D systems) following the manufacturer's instructions. Cells were treated with 10 μg/mL dox, NR 1 or 3 mM, ISRIB 0.5 μM (Sigma), as indicated for 24 hours before cell harvesting or fixation. For the immunostaining, cells were fixed with 1× Formal-Fixx (Thermo Scientific) for 15 min. […]"}, "GMC101 worms [2]": {"tested_on": "GMC101 worms", "experiment": "Development and growth of GMC101 worms", "assay_type": "in vivo, C. elegans", "conditions": "GMC101, eggs to day 1 of adulthood; dox 15 μg/mL", "protocol": "Development: 50 adult worms per condition were transferred on NGM agar plates (10 worms per plate) and allowed to lay eggs for 3 h. Then they were removed and the number of eggs per plate was counted. 72 h later, the number of L1-L3 larvae, L4 and adult worms was counted. The experiment was done twice with five individual plates."}, "C. elegans": {"tested_on": "C. elegans", "conditions": "cited from earlier work"}, "GMC101 worms [3]": {"tested_on": "GMC101 worms", "experiment": "Western-blot of amyloid aggregation in GMC101 worms", "assay_type": "in vivo, C. elegans", "conditions": "GMC101, 24 h after shift to 25° C.; UA 20 uM and 50 uM", "protocol": "C. elegans: Worms were lysed by sonication with RIPA buffer containing protease and phosphatase inhibitors (Roche), and analyzed by SDS-PAGE and western blot. The concentration of extracted protein was determined by using the Bio-Rad Protein Assay. Proteins were detected using the following antibodies: anti-β-actin (Sigma), anti-tubulin (Santa Cruz), atp-5, ucr-1 (Oxphos cocktail, Abcam), anti-β-Amyloid, 1-16 (6E10) (BioLegend). In addition to the housekeeping proteins, loading was monitored by Ponceau Red to ensure a homogeneous loading. Pixel intensity was quantified by using ImageJ software. Each immunoblot experiment was repeated at least twice using 3 biological replicates each containing approximately 1000 worms.\n(§1) During the assays, animals were exposed to Myriocin (dissolved in DMSO) from the egg stage on plates seeded with live HT115 E. coli bacteria. Control plates seeded with the same bacteria were prepared with the corresponding concentrations of DMSO. The day of the experiment (day 1 of adulthood, 3 days after hatching), the GMC101 population was shifted to 25° C. in order to induce the amyloid deposition in the body wall muscle. ˜1000 worms were used for western blotting assays.\n(§2) Worms were lysed by sonication with RIPA buffer containing protease and phosphatase inhibitors (Roche), and analyzed by western blot. The concentration of extracted protein was determined by the Bio-Rad Protein Assay. Proteins were detected using the following antibodies: anti-β-actin (Sigma) and anti-β-Amyloid (BioLegend). In addition to the housekeeping proteins, loading was monitored by Ponceau Red to ensure a homogeneous loading. The immunoblot experiment employed 3 biological replicates, each containing approximately 1000 worms.\nas §2, with “extracted proteins” for “extracted protein”, “3 biologicals” for “3 biological”\nThe GMC101 worms were recovered 24 h after being shifted at 25° C. The population was treated with UA at two different concentrations, ie 20 uM and 50 uM."}, "GMC101 worms [4]": {"tested_on": "GMC101 worms", "experiment": "Worm phenotypic assays in GMC101: mobility, paralysis and death score", "assay_type": "in vivo, C. elegans", "conditions": "GMC101, period of 4 days; UA 20 uM and 50 uM", "protocol": "Doxycycline was obtained from Sigma-Aldrich and dissolved in water. For experiments, a final concentration of 15 μg/mL was used. Olaparib (AZD2281) was dissolved in DMSO to experimental concentrations of 300 nM. Nicotinamide Riboside triflate (NR) was custom synthesized by Novalix (www.novalix-pharma.com/) and dissolved in water, and used at a final concentration of 1 mM. Compounds were added just before pouring the plates. For phenotyping experiments, parental F0 L4 worms were allowed to reach adulthood and lay eggs on the treatment plates. The deriving F1 worms were therefore exposed to compounds during the full life from eggs until death. For RNA analysis experiments, synchronized L1 worms were exposed to the compounds until harvest. To ensure a permanent exposure to the compound, plates were changed twice a week.\nMobility: C. elegans movement analysis was performed as described, starting from day 1 of adulthood, using the Movement Tracker software. The experiments were repeated at least twice.\nParalysis and death score: 5 L4 worms per condition were allowed to reach adulthood and lay eggs on the treatment plates. 45 to 60 deriving F1 worms per condition were manually scored for paralysis after poking, as already described. Worms that were unable to respond to any, repeated stimulation, were scored as dead. Results are representative of the data obtained in at least three independent experiments.\nas §1\nC. elegans movement analysis was performed as described (Mouchiroud et al., 2016), using the Movement Tracker software. ˜50 adult worms were used per condition for movement assays.\nTo score for paralysis and death, 50 worms per condition were manually scored after poking as described (McCool et al., 2012; Florez-McClure et al., 2007). Worms that were unable to respond to repeated stimulation were scored as dead.\nas §1, with “the compound UA” for “Myriocin (dissolved in DMSO)”, “from” for “from the”, “DMSO (0.1%).” for “DMSO.”, “˜50 adult” for “˜1000”, “per conditions.” for “for western blotting assays.”\nC. elegans movement analysis was performed as described in (Mouchiroud et al., 2016), using the Movement Tracker software within a period of 4 days."}, "[5]": {"tested_on": "mouse models of age-related decline of muscle function", "conditions": "mouse models of age-related decline of muscle function, and young rats; cited from earlier work"}}, "note": "Entries after “also recorded” stand apart in the source; their conditions may differ."}
{"smiles": "CCCC[C@H](C)[C@@H](OC(=O)C[C@H](CC(=O)O)C(=O)O)[C@@H](C[C@H](C)C[C@@H](O)CCCC[C@@H](O)C[C@H](O)[C@H](C)N)OC(=O)C[C@H](CC(=O)O)C(=O)O", "note": "[Fumonisin B1, (2S,2'S)-2,2′-{[(5S,6R,7R,9R,11S,16R,18S,19S)-19-Amino-11,16,18-trihydroxy-5,9-dimethylicosane-6,7-diyl]bis[oxy(2-oxoethane-2,1-diyl)]}disuccinic acid]", "values": [{"measurement": "intracellular Aβ deposits", "setting": "[1]; 10 uM, 24 hours", "result": "significantly reduced; also recorded: markedly reduced"}]}
{"smiles": "O=C(COc1ccc(Cl)cc1)NC1CCC(NC(=O)COc2ccc(Cl)cc2)CC1", "note": "(centres unmarked) [ISRIB, reference compound]", "values": [{"measurement": "amyloid clearance by dox after ISRIB pretreatment", "setting": "[1]; ISRIB 0.5 μM with dox 10 μg/mL, 24 h", "result": "prevented amyloid clearance by dox"}, {"measurement": "dox-mediated induction of ATF4 target genes CHOP and CHAC1", "setting": "SH-SY5Y(APPSwe) cells", "result": "hampered the dox-mediated induction"}]}
{"smiles": "C[C@H]1c2cccc(O)c2C(=O)C2=C(O)[C@]3(O)C(=O)C(C(N)=O)=C(O)[C@@H](N(C)C)[C@@H]3[C@@H](O)[C@@H]21", "note": "[dox, doxycycline]", "values": [{"measurement": "development and growth delay", "setting": "GMC101 worms [2]", "result": "without causing major development and growth delays"}]}
{"smiles": "O=c1oc2cc(O)ccc2c2ccc(O)cc12", "note": "[UA, 3,8-Dihydroxyurolithin]", "values": [{"measurement": "mitochondrial respiratory capacity", "setting": "C. elegans; C. elegans during aging", "result": "maintaining mitochondrial respiratory capacity"}, {"measurement": "accumulation of dysfunctional mitochondria with age", "setting": "C. elegans; C. elegans", "result": "prevent the accumulation of dysfunctional mitochondria with age"}, {"measurement": "activity during aging (mobility and pharyngeal pumping)", "setting": "C. elegans; C. elegans", "result": "maintained normal activity during aging"}, {"measurement": "lifespan", "setting": "C. elegans; C. elegans", "result": "extended lifespan"}, {"measurement": "accumulation of amyloid-β aggregates", "setting": "GMC101 worms [3]", "result": "dose-dependently reduced; also recorded: dose-dependent reduction"}, {"measurement": "spontaneous movement (mobility)", "setting": "GMC101 worms [4]", "result": "dose-dependently increased; also recorded: dose-dependent increase"}, {"measurement": "exercise capacity", "setting": "[5]", "result": "significantly improved exercise capacity"}]}
